Experimental data: the supplement of paper PMC10307832

Legend:
Assay in all cases: relative viability (nuclei count vs DMSO), 5 days (fraction); higher = more cells survive
[1] = compound: CN(c1ncccc1CNc1nc(Nc2ccc3c(c2)CC(=O)N3)ncc1C(F)(F)F)S(C)(=O)=O + COc1cc2c(Oc3ccc(NC(=O)C4(C(=O)Nc5ccc(F)cc5)CC4)cc3F)ccnc2cc1OCCCN1CCOCC1 [Foretinib] (partner 0.25 µM)
Summary of the method: (§1)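 Relative viability was taken as the ratio of nuclei in treated wells to nuclei in vehicle wells. Lung cancer cell lines in 1536-well plates received compounds by pin tool one day after seeding, either one drug alone or a fixed anchor-drug dose plus five library-drug doses (not always all listed) in √10 steps. Nuclei were counted on 4× images after 5 days of treatment, and values are medians of duplicate plates.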

[2] = compound: CN(c1ncccc1CNc1nc(Nc2ccc3c(c2)CC(=O)N3)ncc1C(F)(F)F)S(C)(=O)=O + CCNC(=O)c1noc(-c2cc(C(C)C)c(O)cc2O)c1-c1ccc(CN2CCOCC2)cc1 [Luminespib] (partner 0.01 µM)
Summary of the method: as §1

[3] = compound: CN(c1ncccc1CNc1nc(Nc2ccc3c(c2)CC(=O)N3)ncc1C(F)(F)F)S(C)(=O)=O + Cc1cc(Nc2cc(N3CCN(C)CC3)nc(Sc3ccc(NC(=O)C4CC4)cc3)n2)n[nH]1 [Tozasertib] (partner 0.1 µM)
Summary of the method: as §1

[4] = compound: CN(c1ncccc1CNc1nc(Nc2ccc3c(c2)CC(=O)N3)ncc1C(F)(F)F)S(C)(=O)=O + NC(=O)Nc1cc(-c2cccc(F)c2)sc1C(=O)N[C@H]1CCCNC1 [AZD7762] (partner 0.2 µM)
Summary of the method: as §1

Cell Line | relative viability ([1]; first compound 0.01 µM) | relative viability ([1]; first compound 0.03162 µM) | relative viability ([1]; first compound 0.1 µM) | relative viability ([1]; first compound 0.3162 µM) | relative viability ([1]; first compound 1 µM) | relative viability ([2]; first compound 0.01 µM) | relative viability ([2]; first compound 0.03162 µM) | relative viability ([2]; first compound 0.1 µM) | relative viability ([2]; first compound 0.3162 µM) | relative viability ([2]; first compound 1 µM) | relative viability ([3]; first compound 0.01 µM) | relative viability ([3]; first compound 0.03162 µM) | relative viability ([3]; first compound 0.1 µM) | relative viability ([3]; first compound 0.3162 µM) | relative viability ([3]; first compound 1 µM) | relative viability ([4]; first compound 0.01 µM) | relative viability ([4]; first compound 0.03162 µM) | relative viability ([4]; first compound 0.1 µM) | relative viability ([4]; first compound 0.3162 µM) | relative viability ([4]; first compound 1 µM)
A549 | 0.995 | 0.948 | 0.958 | 0.945 | 0.933 |  |  |  |  |  |  |  |  |  |  |  |  |  |  | 
COR-L23 | 1.07 | 1.15 | 0.937 | 0.921 | 0.851 | 0.622 | 1 | 0.656 | 0.734 | 0.41 | 0.184 | 0.195 | 0.186 | 0.146 | 0.129 |  |  |  |  | 
COR-L 105 | 1 | 1.27 | 0.989 | 0.848 | 0.773 | 0.691 | 0.712 | 0.809 | 0.766 | 0.526 | 0.365 | 0.322 | 0.341 | 0.399 | 0.247 |  |  |  |  | 
Calu-6 | 0.936 | 0.989 | 0.808 | 0.955 | 0.812 |  |  |  |  |  |  |  |  |  |  |  |  |  |  | 
EBC-1 | 0.107 | 0.119 | 0.102 | 0.105 | 0.0994 |  |  |  |  |  |  |  |  |  |  |  |  |  |  | 
HCC-44 |  |  |  |  |  | 1.04 | 1.5 | 1.24 |  | 0.933 | 1.02 | 0.926 | 0.94 |  | 0.804 | 0.948 | 1.02 | 0.969 | 0.967 | 0.964
HCC-78 | 0.543 | 0.571 | 0.533 | 0.562 | 0.514 |  |  |  |  |  | 0.463 | 0.428 | 0.427 | 0.45 | 0.332 | 0.859 | 0.646 | 0.644 | 0.565 | 0.521
HCC-366 | 0.899 | 0.925 | 0.942 | 0.982 | 0.781 |  |  |  |  |  | 0.129 | 0.143 | 0.126 | 0.0925 | 0.0651 | 0.378 | 0.329 | 0.319 | 0.288 | 0.34
IA-LM | 1.25 | 1.17 | 0.917 | 1.27 | 0.874 |  |  |  |  |  |  |  |  |  |  |  |  |  |  | 
NCI-H520 | 0.851 | 0.744 | 0.723 | 0.839 | 0.722 | 0.209 | 0.242 | 0.205 | 0.2 | 0.183 | 0.485 | 0.474 | 0.467 | 0.546 | 0.429 |  |  |  |  | 
NCI-H661 | 1.01 | 1.04 | 0.989 | 0.993 | 0.92 | 0.854 | 0.928 | 0.837 | 0.871 | 0.876 | 0.294 | 0.334 | 0.361 | 0.372 | 0.353 |  |  |  |  | 
NCI-H1299 | 1.12 | 1.1 | 1.05 | 1.09 | 1.08 |  |  |  |  |  |  |  |  |  |  |  |  |  |  | 
NCI-H1563 | 0.996 | 0.907 | 1.04 | 0.899 | 0.863 | 0.538 | 0.528 | 0.53 | 0.482 | 0.547 |  |  |  |  |  |  |  |  |  | 
NCI-H1648 |  |  |  |  |  |  |  |  |  |  | 0.433 | 0.36 | 0.317 | 0.386 | 0.407 | 0.66 | 0.588 | 0.535 | 0.551 | 0.677
NCI-H1650 | 1.12 | 1.25 | 1.38 | 1.19 | 0.971 | 0.203 | 0.207 | 0.194 | 0.193 | 0.198 | 0.497 | 0.359 | 0.429 | 0.323 | 0.269 |  |  |  |  | 
NCI-H1703 | 0.37 | 0.3 | 0.36 | 0.332 | 0.349 |  |  |  |  |  |  |  |  |  |  | 0.131 | 0.18 | 0.124 | 0.127 | 0.118
NCI-H1792 |  |  |  |  |  | 0.387 | 0.54 | 0.467 | 0.451 | 0.359 |  |  |  |  |  | 0.721 | 0.822 | 0.674 | 0.722 | 0.755
NCI-H2009 | 1.17 | 1.22 | 1.27 | 1.27 | 0.965 | 1.04 | 1.02 | 1.03 | 0.683 | 0.948 | 0.631 | 0.696 | 0.744 | 0.693 | 0.625 |  |  |  |  | 
NCI-H2023 | 0.791 | 0.715 | 0.731 | 0.752 | 0.642 | 0.696 | 0.79 | 0.597 | 0.643 | 0.611 | 0.377 | 0.403 | 0.368 | 0.299 | 0.229 |  |  |  |  | 
NCI-H2228 | 1 | 0.995 | 0.749 | 0.927 | 0.811 | 0.144 | 0.23 | 0.0915 | 0.182 | 0.103 | 0.271 | 0.243 | 0.249 | 0.239 | 0.207 |  |  |  |  | 
SK-LU-1 | 0.823 | 0.845 | 0.712 | 0.815 | 0.61 | 0.197 | 0.208 | 0.214 | 0.172 | 0.209 | 0.339 | 0.308 | 0.307 | 0.294 | 0.262 |  |  |  |  | 
SK-MES-1 | 0.905 | 0.919 | 0.817 | 1.01 | 0.868 | 0.782 | 0.813 | 0.809 | 0.788 | 0.673 | 0.896 | 0.923 | 0.852 | 0.836 | 0.47 |  |  |  |  | 
SW 1573 | 0.961 | 0.856 | 0.884 | 1.16 | 0.975 | 0.726 | 0.195 | 0.289 | 0.311 | 0.189 | 0.166 | 0.198 | 0.188 | 0.201 | 0.16 |  |  |  |  | 
UMC-11 | 0.972 | 1.14 | 0.953 | 1.01 | 0.823 | 0.928 | 0.998 | 0.97 | 1.11 | 0.924 | 0.198 | 0.184 | 0.187 | 0.181 | 0.206 |  |  |  |  | 
